Source: US9193744B2, “Heterocyclic nuclear hormone receptor modulators” (AbbVie Inc., priority 2012, dated 2015)
Read-outs that look alike come from different tables or passages of the source.

Columns and labels:
[1] = biological target: T1, Glucocorticoid Receptor (GR) (Homo sapiens, UniProt P04150); assay: GR Fluorescence Polarization Assay (PolarScreen Glucocorticoid Receptor Competitor Assay, Red); settings: fluorescence polarization binding ranges
T1 construct: purchased Invitrogen P2893
T1 sequence (P04150 1-777): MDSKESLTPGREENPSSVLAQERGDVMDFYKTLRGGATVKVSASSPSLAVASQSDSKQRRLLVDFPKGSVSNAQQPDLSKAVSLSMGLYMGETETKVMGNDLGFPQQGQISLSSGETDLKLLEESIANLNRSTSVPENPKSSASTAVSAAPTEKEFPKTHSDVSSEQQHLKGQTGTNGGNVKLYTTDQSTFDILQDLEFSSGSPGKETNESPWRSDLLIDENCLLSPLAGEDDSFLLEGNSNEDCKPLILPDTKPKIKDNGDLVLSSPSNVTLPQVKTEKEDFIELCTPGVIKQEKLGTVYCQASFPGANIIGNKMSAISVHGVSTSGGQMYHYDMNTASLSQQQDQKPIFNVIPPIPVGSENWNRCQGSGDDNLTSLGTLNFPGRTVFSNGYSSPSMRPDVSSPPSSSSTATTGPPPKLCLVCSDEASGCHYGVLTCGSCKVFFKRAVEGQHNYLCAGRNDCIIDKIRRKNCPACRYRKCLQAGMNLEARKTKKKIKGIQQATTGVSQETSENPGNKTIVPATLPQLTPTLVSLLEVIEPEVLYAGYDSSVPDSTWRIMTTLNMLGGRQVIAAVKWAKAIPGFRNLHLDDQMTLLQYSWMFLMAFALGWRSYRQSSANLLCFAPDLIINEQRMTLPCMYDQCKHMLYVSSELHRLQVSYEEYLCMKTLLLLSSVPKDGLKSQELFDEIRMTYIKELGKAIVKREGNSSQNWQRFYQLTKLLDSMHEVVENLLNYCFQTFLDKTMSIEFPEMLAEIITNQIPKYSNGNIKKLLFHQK
Protocol: Fluorescence polarization assays were carried out using the PolarScreen™ Glucocorticoid Receptor Competitor Assay, Red from Invitrogen (P2893). The assay buffer was prepared according to the manufacturer's protocol and used to dilute the fluorescent glucocorticoid and GR. Compounds were prepared and serial diluted 1:4 in DMSO. Compound, fluorescent glucocorticoid and GR were added in a final volume of 20 μL and incubated overnight at 4° C. Fluorescent polarization was measured on the PerkinElmer Envision®. Fluorescence polarization binding ranges measured using GR Fluorescence Polarization Assay: […]

IL-6 = assay: A549 Cell Assay to Measure Inflammation Markers (inhibition of IL-1β-induced IL-6); format: cell-based; settings: A549 cells, read-out: A549 cell assay
Protocol: A549 Cell Assay to Measure Inflammation Markers
A549 cells were seeded (3E4 cells/well) in 96-well assay plates in culture medium (100 μL/well., F-12 K base media, supplemented with 10% FBS and 100 μ/mL-100 μg/mL Pen-Strep.) After overnight culture in an incubator set to 37° C., 4.9% CO2, and 90% humidity, media was removed from adherent cells by aspiration and replaced with 100 μL/well Assay Medium (F-12 K base media supplemented with 5% charcoal stripped calf sera and 100 U/mL-100 μg/mL Pen-Strep.) Compounds were prepared in DMSO and serial diluted (1:3, 1:4, or 1:5) with DMSO in Dilution Plate(s) to give 10 dilution points for each compound tested. Further dilution (1:250) of compound was made into assay medium and 50 μL/well diluted drug or DMSO/media control was applied to cells. After a 1 h pre-incubation in a temperature, CO2, and humidity controlled incubator, set to 37° C., 50 μL/well of 4 ng/mL IL-1β diluted in assay media, was applied to cultures. Assay plates, with a final volume of 200 μL/well and final concentrations of 0.1% DMSO and 1 ng/mL IL-1β were returned to incubator for a four h incubation period. Next, plates were spun at 183 g (1000 rpm in Beckman/Coulter Allegra 6KR centrifuge) for 10 min. Cell-free supernatant (150 μL/well) was collected and IL-6 was measured by MSD kit, following protocol of manufacturer, and using MSD SECTOR Imager 6000 instrument. Potency of compounds to inhibit IL-6 was determined using the percent reduction of measured IL-6 in wells with compound compared to control wells without drug, and relative to (100% inhibition) positive control compound of 1 μM prednisolone. Results were represented as IC50 and Emax values. To verify that viable cell numbers were similar across plate(s), and not confounding compound IC50 data interpretation, the remaining 50 μL/well of cells and media (after removal of supernatant) were used to run Cell Titer-Glo Assay per directions of manufacturer.

Work on `CC[C@@]12C[C@@H](O)[C@](O)(C(F)(F)F)C[C@H]1CCCc1cc3c(cnn3-c3ccc(F)cc3)cc12` (single isomer, unassigned) [Example 119] yielded an IC50 [1] of less than 100 nM and an IC50 (IL-6; Homo sapiens) of less than 100 nM.
Compound `CC[C@]12CC(=O)[C@@](O)(C(F)(F)F)C[C@@H]1CCCc1cc3c(cnn3-c3ccc(F)cc3)cc12` (single isomer, unassigned) [Example 116] has an IC50 [1] of 100 to 1000 nM and an IC50 (IL-6; Homo sapiens) of 100 to 1000 nM.
With `CC#C[C@@]1(O)CC[C@@]2(CC)c3cc4cnn(-c5ccc(F)cc5)c4cc3CCC[C@@H]2C1` [Example 111] the IC50 [1] was less than 100 nM and the IC50 (IL-6) was less than 100 nM.
In the case of `CC[C@@]12CC[C@](O)(C(F)(F)F)C[C@H]1CCCc1nc3c(cnn3-c3ccc(F)cc3)cc12` (single isomer, unassigned) [Example 154], the IC50 [1] is reported as less than 100 nM and the IC50 (IL-6; Homo sapiens) is reported as less than 100 nM.
`C[C@]1(O)CC[C@]2(Cc3ncccn3)c3cc4cnn(-c5ccc(F)cc5)c4cc3CCC[C@@H]2C1` [Example 56] gave an IC50 [1] of 100 to 1000 nM and an IC50 (IL-6) greater than 10000 nM.
`CC[C@]12CC[C@](O)(C(F)(F)F)C[C@H]1CCCc1c2cc2cnn(-c3ccc(F)cc3)c2c1Br` [Example 92, (3R,4aR,12bS)-8-Bromo-12b-ethyl-9-(4-fluorophenyl)-3-(trifluoromethyl)-1,2,3,4,4a,5,6,7,9,12b-decahydrobenzo[6,7]cyclohepta[1,2-f]indazol-3-ol] showed an IC50 [1] of 100 to 1000 nM and an IC50 (IL-6; Homo sapiens) greater than 10000 nM.
With `C[C@@]1(O)CC[C@@]2(Cc3ccccn3)c3cc4cnn(-c5ccc(F)cc5)c4nc3CCC[C@H]2C1` (racemic) [Example 148, rac-(3R,4aS,12bS)-9-(4-Fluorophenyl)-3-methyl-12b-(pyridin-2-ylmethyl)-1,2,3,4,4a,5,6,7,9,12b-decahydrobenzo[3,4]cyclohepta[1,2-b]pyrazolo[4,3-e]pyridin-3-ol] the IC50 [1] was less than 100 nM and the IC50 (IL-6; Homo sapiens) was less than 100 nM.
`N#CC[C@]1(O)CC[C@]2(Cc3ccccn3)c3cc4cnn(-c5ccc(F)cc5)c4cc3CCC[C@@H]2C1` (single isomer, unassigned) [Example 18] gave an IC50 [1] of less than 100 nM and an IC50 (IL-6; Homo sapiens) of less than 100 nM.
Work on `N#C[C@@]12CC[C@](O)(C(F)(F)F)C[C@H]1CCCc1cc3c(cnn3-c3ccc(F)cc3)cc12` (single isomer, unassigned) [Example 72] yielded an IC50 [1] of less than 100 nM and an IC50 (IL-6; Homo sapiens) of 100 to 1000 nM.
For `CC[C@]1(O)CC[C@]2(CC)c3cc4cnn(-c5ccc(F)cc5)c4cc3CCC[C@H]2C1` [Example 114], the IC50 [1] was 100 to 1000 nM and the IC50 (IL-6) was 100 to 1000 nM.
`CS(=O)(=O)NC[C@@]12CC[C@](O)(C(F)(F)F)C[C@H]1CCCc1cc3c(cnn3-c3ccc(F)cc3)cc12` [Example 74, N-(((3R,4aR,12bS)-9-(4-fluorophenyl)-3-hydroxy-3-(trifluoromethyl)-1,2,3,4,4a,5,6,7,9,12b-decahydrobenzo[6,7]cyclohepta[1,2-f]indazol-12b-yl)methyl)methanesulfonamide] showed an IC50 [1] of less than 100 nM and an IC50 (IL-6; Homo sapiens) of less than 100 nM.
`CC[C@]12CC[C@](O)(C(F)(F)F)C[C@@H]1CCCc1nc3c(cnn3-c3ccc(F)cc3)cc12` (racemic) [Example 151, rac-(3R,4aS,12bS)-12b-Ethyl-9-(4-fluorophenyl)-3-(trifluoromethyl)-1,2,3,4,4a,5,6,7,9,12b-decahydrobenzo[3,4]cyclohepta[1,2-b]pyrazolo[4,3-e]pyridin-3-ol] gave an IC50 [1] of 1000 to 10000 nM and an IC50 (IL-6; Homo sapiens) of 100 to 1000 nM.
`N#CC[C@@]1(O)CC[C@@]2(Cc3ncccn3)c3cc4cnn(-c5ccc(F)cc5)c4nc3CCC[C@H]2C1` [Example 165] showed an IC50 [1] of less than 100 nM and an IC50 (IL-6) of less than 100 nM.
With `COC[C@@]1(O)CC[C@@]2(CC3CC3)c3cc4cnn(-c5ccc(F)cc5)c4cc3CCC[C@H]2C1` [Example 40] the IC50 [1] was less than 100 nM and the IC50 (IL-6) was less than 100 nM.
Work on `CC[C@]12CC[C@@](O)(C(F)(F)F)C[C@@H]1CCOc1cc3c(cnn3-c3ccc(F)cc3)cc12` (single isomer, unassigned) [Example 147] yielded an IC50 [1] of less than 100 nM and an IC50 (IL-6; Homo sapiens) of 100 to 1000 nM.
`N#CC[C@@]1(O)CC[C@@]2(Cc3ccccn3)c3cc4cnn(-c5ccc(F)cc5)c4cc3CCC[C@H]2C1` (single isomer, unassigned) [Example 17] was tested, and the IC50 [1] was less than 100 nM and the IC50 (IL-6; Homo sapiens) was less than 100 nM.
In the case of “(2S,3R,4aS,12bS)-12b-ethyl-9-(4-fluorophenyl)-3-(trifluoromethyl)-1,2,3,4,4a,5,6,7,9,12b-decahydrobenzo[6,7]cyclohepta[1,2-f]indazole-2,3-diol [Example 120]”, the IC50 [1] is reported as less than 100 nM and the IC50 (IL-6) is reported as 100 to 1000 nM.
`CC[C@@]12C[C@@](C)(O)[C@](O)(C(F)(F)F)C[C@H]1CCCc1cc3c(cnn3-c3ccc(F)cc3)cc12` (single isomer, unassigned) [Example 117] was tested, and the IC50 [1] was less than 100 nM and the IC50 (IL-6; Homo sapiens) was less than 100 nM.
Compound `CC[C@]12C[C@@H](O)[C@@](O)(C(F)(F)F)C[C@@H]1CCCc1cc3c(cnn3-c3ccc(F)cc3)cc12` (single isomer, unassigned) [Example 122] has an IC50 [1] of less than 100 nM and an IC50 (IL-6; Homo sapiens) of less than 100 nM.
`CC[C@@]12CC[C@](O)(COC)C[C@@H]1CCOc1cc3c(cnn3-c3ccnc(OC)c3)cc12` [Example 138] showed an IC50 [1] of less than 100 nM and an IC50 (IL-6) of 1000 to 10000 nM.
`CC[C@@]12CC[C@](O)(CC#N)C[C@@H]1CCCc1cc3c(cnn3-c3ccc(F)cc3)cc12` [Example 65] was tested, and the IC50 [1] was less than 100 nM and the IC50 (IL-6) was less than 100 nM.
`CC[C@@]12CC[C@@](C)(O)C[C@@H]1CCCc1cc3c(cnn3-c3ccc(F)cc3)cc12` [Example 54] gave an IC50 [1] of less than 100 nM and an IC50 (IL-6) of less than 100 nM.
`C#C[C@@]1(O)CC[C@@]2(CC)c3cc4cnn(-c5ccc(F)cc5)c4cc3CCC[C@@H]2C1` (single isomer, unassigned) [Example 109] showed an IC50 [1] of less than 100 nM and an IC50 (IL-6; Homo sapiens) of less than 100 nM.
For `C[C@]1(O)CC[C@]2(CC3CC3)c3cc4cnn(-c5ccc(F)cc5)c4cc3CCC[C@@H]2C1` [Example 58], the IC50 [1] was less than 100 nM and the IC50 (IL-6) was less than 100 nM.
`CC[C@]12CC[C@@](O)(COC)C[C@H]1CCOc1cc3c(cnn3-c3ccc(F)cc3)cc12` [Example 130] was tested, and the IC50 [1] was less than 100 nM and the IC50 (IL-6) was greater than 10000 nM.
Work on `CC[C@]12CC[C@@](O)(COC)C[C@H]1CCOc1cc3c(cnn3-c3ccncc3)cc12` [Example 133] yielded an IC50 [1] of 100 to 1000 nM and an IC50 (IL-6; Homo sapiens) greater than 10000 nM.
`CC[C@]12CC[C@@](O)(C(F)(F)F)C=C1CCCc1cc3c(cnn3-c3ccc(F)cc3)cc12` (single isomer, unassigned) [Example 107] showed an IC50 [1] of less than 100 nM and an IC50 (IL-6; Homo sapiens) of 100 to 1000 nM.
`CC[C@]12CC[C@@](O)(COC)C[C@H]1CCCc1cc3c(cnn3-c3cccnc3)cc12` [Example 43] showed an IC50 [1] of less than 100 nM and an IC50 (IL-6) greater than 10000 nM.
In the case of `CC[C@@]12CC[C@](O)(COC)C[C@@H]1CCCc1cc3c(cnn3-c3ccccn3)cc12` [Example 47], the IC50 [1] is reported as less than 100 nM and the IC50 (IL-6) is reported as less than 100 nM.
With `CC[C@@]12C[C@@H](O)[C@](O)(C(F)(F)F)C[C@@H]1CCCc1cc3c(cnn3-c3ccc(F)cc3)cc12` (single isomer, unassigned) [Example 98] the IC50 [1] was less than 100 nM and the IC50 (IL-6; Homo sapiens) was less than 100 nM.
With `CC[C@@]12CC[C@](O)(COC)C[C@@H]1CCOc1cc3c(cnn3-c3ccncc3)cc12` (racemic) [Example 132] the IC50 [1] was less than 100 nM and the IC50 (IL-6; Homo sapiens) was less than 100 nM.
`OC[C@@]12CC[C@](O)(C(F)(F)F)C[C@H]1CCCc1cc3c(cnn3-c3ccc(F)cc3)cc12` [Example 78, (3R,4aR,12bS)-9-(4-fluorophenyl)-12b-(hydroxymethyl)-3-(trifluoromethyl)-1,2,3,4,4a,5,6,7,9,12b-decahydrobenzo[6,7]cyclohepta[1,2-f]indazol-3-ol] showed an IC50 [1] of less than 100 nM and an IC50 (IL-6; Homo sapiens) of less than 100 nM.
